# Experimental data: patent US20150238483A1, “Traitement des neuronopathies motrices” (CENTRE NATIONAL DE LA RECHERCHE SCIENTIFIQUE- CNRS, priority 2012, published 2015)
# Structures can show the parent of a compound that is named as a salt. Where two headings read alike, the source gives them in different places.
# Assays:
# [1] = test system: immortalized SMA fibroblasts; assay: Distribution of the SMN protein to Cajal bodies (CBs) in immortalized SMA fibroblasts, immunolabeling, cells counted; type: cell-based, human; conditions: for induction factor of cells with SMN protein in CBs (DMSO = 1): 24 hours of treatment at 2 micrograms/ml, immortalized SMA fibroblasts; for Maximum induction: at 2 μg/ml, DMSO = 1; for Maximum induction / Dilution at EC50: immortalized type I line; for Dilution at EC50: dilution relative to 2 μg/ml
# Procedure: This immortalization is described in the publication Lefebvre S, Burlet P, Viollet L, Bertrandy S, Huber C, Belser C and Munnich A. A novel association of the SMN protein with major non-ribosomal nucleolar proteins and its implication in spinal muscular atrophy. Hum Mol Genet (2002) 11 (9): 1017-1027.
# The blockers of the invention are commercially available (for example from Sigma-Aldrich) and are sold in 96-well plates, at 2 milligrams per molecule per well to be dissolved in 1 ml of DMSO.
# In order to determine whether the calcium channel blockers exerted a positive effect, the inventors counted the cells which had the SMN protein located in the CBs out of 100 cells randomly selected for each experiment.
# This experiment was repeated three times.
# A value of induction by a factor equal to 1 was arbitrarily assigned to DMSO.
# In order to evaluate the relationship between the concentration (dose) and the effect (response) on the CBs of the immortalized SMA cells, the inventors constructed a dose-response curve for each of the molecules.
# [2] = humans, cited from earlier work; for maximum plasma level: oral, 10 mg per day
# [3] = test system: immortalized SMA cells; assay: Co-immunolabeling of coilin and TMG cap: snRNPs at the level of CBs in immortalized SMA cells; type: cell-based, human; conditions: 24 hours of treatment; chi-2, 0.001<p<0.01; n=300 cells
# Procedure: Co-immunolabeling experiments similar to the previous ones were carried out on the immortalized SMA cells using two commercial antibodies, one specific for the coilin protein (CBs marker) and the other for the trimethylguanosine (TMG) cap of the small nuclear RNAs of snRNPs.
# These tests show an increase in the SMN protein and in the snRNPs in Cajal bodies in the immortalized SMA line from the severe form of the disease (type I), induced by the calcium channel blockers of the invention. The mean value for the snRNPs is calculated from the three experiments (n=300 cells).
# [4] = test system: amyotrophic lateral sclerosis; conditions: ALS patients; cited from earlier work
SMILES,induction factor of cells with SMN protein in CBs (DMSO = 1) [1],Maximum induction [1],Dilution at EC50 [1],also measured
"CCCCc1oc2ccccc2c1C(=O)c1cc(I)c(OCCN(CC)CC)c(I)c1 [Amiodarone hydrochloride, (2-butyl-3-benzofuranyl)[4-[2-(diethylamino)ethoxy]-3,5-diiodophenyl]methanone hydrochloride]",approximately 2.8,2.8 ± 1.0,,
"Fc1ccc(C(c2ccc(F)cc2)N2CCN(C/C=C/c3ccccc3)CC2)cc1 [Flunarizine dihydrochloride, flunarizine dihydrochloride]",approximately 4.8,4.8 ± 1.5,1/53,"maximum plasma level [2]: approximately 81±16 nanograms/ml; maximum plasma level ([2]; converted from ng/ml): approximately 170±34 nM; elimination half-life [2]: long; induction factor of SMN protein distribution to CBs (DMSO = 1) ([1]; compounds diluted to 1/1000 compared with examples 1 and 2, FIG. 1): 1.2; snRNPs at the level of the CBs [3]: significant increase"
"NCC1(CC(=O)O)CCCCC1 [Gabapentin, 2-[1-(aminomethyl)cyclohexyl]acetic acid]",approximately 3.3,4.4 ± 1.0,1/55,"EC50 ([1]; Homo sapiens, Fibroblast): 210 ± 38 nM"
Nc1nc2ccc(OC(F)(F)F)cc2s1 [Riluzole],,,,improvement of patient prognosis [4]: 30%
CC(C)C[C@H](CN)CC(=O)O [pregabalin],1.7,,,
